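Exposure lasted 48 hours, with cells grown in 96-well plates and compounds tested at five concentrations. GI50: concentration for 50% inhibition of growth.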 The source made the active and inactive calls. Cut-off read from the data, not from the text of the source: active = GI50 up to about 1.1 µM and inactive = higher.

Some test systems named below: 786-0; CAKI-1; OVCAR-4; SK-MEL-2; OVCAR-5; IGROV-1; SF-268; HL-60; A549; LOX IMVI; SK-MEL-5; UACC-62; DU-145; T47D; NCI/ADR-RES; MDA-MB-231; PC-3; MDA-N.
Holding throughout (experiment): DTP human tumour cell line panel, 48 h

For the compound `O=C(CO[N+](=O)[O-])OCC(=O)c1ccccc1`, the GI50 in the assay on 786-0, in the assay on CAKI-1, in the assay on OVCAR-4, with SK-MEL-2, in the assay with OVCAR-5 and in the assay on IGROV-1 was > 100 µM (inactive) in each case. Moreover, the GI50 in the assay on SF-268, in the assay on HL-60, in the assay on A549 and in the assay with LOX IMVI was > 100 µM (inactive) in each case.
Turning to `CC(C)C1CO[C@]2(C)CCC(=O)N12` (some centres undefined), the GI50 in the assay with 786-0, in the assay on CAKI-1, in the assay with SK-MEL-5, in the assay on OVCAR-4, with SK-MEL-2 and in the assay with IGROV-1 was > 100 µM (inactive) throughout. Besides, the GI50 with SF-268, in the assay with UACC-62, in the assay with HL-60 and in the assay on A549 was > 100 µM (inactive) throughout.
For the compound `O=c1ccn2n1Cc1ccccc1C2`, the GI50 with 786-0, in the assay with CAKI-1, in the assay on DU-145, in the assay with T47D, in the assay with NCI/ADR-RES and with SK-MEL-5 was > 100 µM (inactive) throughout. The GI50 with OVCAR-4, with SK-MEL-2, in the assay on OVCAR-5, in the assay on IGROV-1, with MDA-MB-231 and with SF-268 was > 100 µM (inactive) throughout. Further, the GI50 in the assay on PC-3, with UACC-62, in the assay on HL-60, in the assay on A549 and in the assay with LOX IMVI was > 100 µM (inactive) each time.
`Cc1cc(=O)oc2cc(OCc3nc4ccccc4c(=O)n3-c3ccccc3)ccc12`: the GI50 (as a rule, the concentration giving 50% growth inhibition) in the assay on 786-0 was 38.4 µM (inactive); with CAKI-1, > 100 µM (inactive); with SK-MEL-5 it was > 100 µM (inactive); in the assay with OVCAR-4, > 100 µM (inactive); with SK-MEL-2, > 100 µM (inactive); in the assay with OVCAR-5, > 100 µM (inactive). Further, the GI50 with IGROV-1, with SF-268, with UACC-62, with HL-60, with A549 and in the assay with LOX IMVI was > 100 µM (inactive) in each case.
Turning to `N/N=C(\CC1OC(=O)c2ccccc21)c1ccco1` (centres undefined), the 50% growth inhibitory concentration (GI50) with 786-0 was < 0.01 µM (active); with CAKI-1 it was > 100 µM (inactive); in the assay with SK-MEL-5, > 100 µM (inactive); with OVCAR-4, > 100 µM (inactive); in the assay on SK-MEL-2, > 100 µM (inactive); in the assay on OVCAR-5, > 100 µM (inactive). In addition, the GI50 with IGROV-1 is > 100 µM (inactive); in the assay on SF-268, > 100 µM (inactive); in the assay with UACC-62 it was > 100 µM (inactive); in the assay on HL-60, > 100 µM (inactive); with A549, > 100 µM (inactive); in the assay with LOX IMVI, 80 µM (inactive).
With `CC(=O)OCC1OC(O[C@@H]2C[C@H]3C(C)(C)[C@H](OC(C)=O)CC[C@]3(C)[C@H]3CC[C@]4(C)C(=CC[C@H]4[C@@H](C)C[C@@H](O)[C@H](O)C(C)(C)O)[C@@]32C)C(O)C(O)C1O` (some centres undefined), the GI50 with 786-0 is 16.4 µM (inactive); with CAKI-1, 14.2 µM (inactive); in the assay on DU-145, 17.3 µM (inactive); in the assay on T47D it was 16.7 µM (inactive); in the assay on NCI/ADR-RES it was > 100 µM (inactive); in the assay with OVCAR-4, 16 µM (inactive). Further, the GI50 was 18.4 µM (inactive) in the assay with MDA-N; 17.4 µM (inactive) in the assay with SK-MEL-2; 14.1 µM (inactive) with OVCAR-5; 18.6 µM (inactive) with IGROV-1; 16.9 µM (inactive) in the assay with MDA-MB-231; 15.8 µM (inactive) in the assay on SF-268. In addition, the GI50 is 16.9 µM (inactive) with PC-3, 16.1 µM (inactive) with UACC-62, 15.7 µM (inactive) with HL-60 and 16.2 µM (inactive) in the assay on LOX IMVI.
On to `CC(=O)Oc1c(C)cc2c(c1C)C(C)CN2C(C)=O` (centres undefined), for which the GI50 in the assay on 786-0, in the assay on DU-145, in the assay with T47D, in the assay with NCI/ADR-RES, with SK-MEL-5 and with OVCAR-4 was > 100 µM (inactive) each time. The GI50 with MDA-N, in the assay on SK-MEL-2, with OVCAR-5, in the assay on IGROV-1, in the assay on MDA-MB-231 and in the assay on SF-268 was > 100 µM (inactive) in each case. The GI50 with PC-3, with UACC-62, in the assay on HL-60, with A549 and with LOX IMVI was > 100 µM (inactive) throughout.
For the compound `Cn1c(N)nc2c(nc(OCc3ccccc3)n2C2OC(CO)C(O)C2O)c1=O` (centres undefined), the GI50 with 786-0, with CAKI-1, in the assay with DU-145, in the assay on T47D, with SK-MEL-5 and with OVCAR-4 was > 100 µM (inactive) throughout. In addition, the GI50 with MDA-N, in the assay with SK-MEL-2, with OVCAR-5, in the assay with IGROV-1, in the assay with MDA-MB-231 and with SF-268 was > 100 µM (inactive) in each case. For the same compound, the GI50 with PC-3, in the assay on UACC-62, in the assay on HL-60, in the assay with A549 and with LOX IMVI was > 100 µM (inactive) in each case.
In the case of `Cc1ccc(C)c(NC(=O)c2cc(-c3ccc([N+](=O)[O-])cc3)nc(N)n2)c1`, the GI50 with 786-0, in the assay on CAKI-1, in the assay on SK-MEL-5, in the assay on OVCAR-4, in the assay with SK-MEL-2 and in the assay on OVCAR-5 was > 100 µM (inactive) each time. For the same compound, the GI50 in the assay on IGROV-1, with SF-268, in the assay with UACC-62, in the assay on HL-60, with A549 and in the assay on LOX IMVI was > 100 µM (inactive) each time.
With `Oc1ccc[n+](Cc2ccccc2)c1`, the GI50 in the assay with 786-0, with CAKI-1, with DU-145, with T47D, in the assay with NCI/ADR-RES and with SK-MEL-5 was > 100 µM (inactive) each time. Besides, the GI50 with MDA-N, with SK-MEL-2, with OVCAR-5, in the assay with MDA-MB-231, in the assay with SF-268 and with PC-3 was > 100 µM (inactive) each time. The GI50 in the assay on UACC-62, in the assay on HL-60, with A549 and in the assay with LOX IMVI was > 100 µM (inactive) each time.

These data come from ChEMBL document CHEMBL1201862, “PubChem BioAssay data set” (2004).
